From PubChem BioAssay (NCI) come the findings set out here.

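Compound exposure: 48 hours, 5 concentrations, 96-well plates. GI50 = concentration required for 50% inhibition of growth. TGI is the concentration that stops growth completely.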

The first assay relates to PC-3 prostate. Kind of assay: NCI tumour cell line growth inhibition, 48 h.
Compound `COC(=O)C1=C(C)NC(C)=C(C(=O)OCCCN2CCC(c3ccccc3)(c3ccccc3)CC2)C1c1cccc([N+](=O)[O-])c1` (stereo not drawn) had a TGI of 3.05 µM.

As for `COc1ccc([C@H]2[C@@H](F)C(=O)N2c2cc(OC)c(OC)c(OC)c2)cc1F`, the GI50 is 0.042 µM and the TGI is > 100 µM.

Consider `N=Nc1c(OC(=O)Nc2cccc(Cl)c2)[nH]c2ccccc12`, for which the TGI was determined as 14.6 µM.

`CC1(C)C2CCC(=O)C1CC2` (stereo not drawn): the TGI was > 100 µM.

As for `Fc1cc2[nH]ncc2c2c3c(c(-c4cn[nH]c4)nc12)CCCC3`, the GI50 was 1.77 µM and the TGI came out at 33.7 µM.

With `CCN(CC)c1ccc(-c2cc(-c3cc(OC)c(OC)c(OC)c3)nc(N3CCOCC3)c2C#N)cc1`, the GI50 is 1.27 µM and the TGI is > 100 µM.

The compound `C=C(Br)C(C)(Br)CCC(Br)C(C)(C)Cl` (stereo not drawn) had a TGI of 36.3 µM.

Turning to `O=C(CCc1nnc2sc(-c3ccc(Cl)cc3Cl)nn12)c1nc2ncccc2[nH]1`, the GI50 is 1.63 µM and the TGI is 3.63 µM.

As to `ClCc1cccc(Cn2cnc3ncnc(Cl)c32)c1`, the GI50 is 2.13 µM and the TGI was 5.32 µM.

Regarding `OCC#Cc1ccccc1C#Cc1ccccc1`, the GI50 was 11.5 µM and the TGI worked out at 24.1 µM.

With `NS(=O)(=O)c1cc(Br)c(N=Nc2ccc(O)c3ncccc23)c(Br)c1`, the TGI was > 100 µM.

With `O=C(Nc1ccc(Cl)cc1)c1cccc(NC2=C(Cl)C(=O)N(Cc3ccccc3)C2=O)c1`, the GI50 is 9.12 µM and the TGI was determined as 21.2 µM.

As to `O=C(/C=C/c1ccncc1)c1cc(Cl)ccc1O`, the GI50 was 14.8 µM and the TGI stood at 33.6 µM.

For the compound `Cc1cc(/C=C/c2ccc3cc(N(C)C)ccc3[n+]2C)c(C)n1-c1ccccc1`, the GI50 is 0.13 µM and the TGI is 0.765 µM.

As to `CC[C@H](Nc1ncnc2nc[nH]c12)c1oc2ccccc2c(=O)c1-c1cccc(F)c1`, the GI50 is 12.4 µM and the TGI is > 100 µM.

For `COc1cc(NCc2ccc3oc(=O)c(-c4ccccc4)nc3c2)cc(OC)c1OC`, the TGI is > 10 µM.

In the case of `COc1ccc(-c2nnc(COc3ccc(NC(=O)Nc4cc(C(F)(F)F)cc(C(F)(F)F)c4)cc3F)o2)cc1`, the GI50 was 1 µM and the TGI came out at 4.34 µM.

On to `COC1=CC(=O)C(C2CC(=O)c3c(O)cc(O)cc3O2)=CC1=O` (stereo not drawn), for which the TGI was 31.1 µM.

On to `COc1cc(/C=C/c2cc(O)c(C(C)=O)c(O)c2)cc2c1O[C@]1(C)CC[C@@H](O)C(C)(C)[C@H]1C2`, for which the GI50 is 3.75 µM and the TGI was > 100 µM.

As for `CC(C)C(C)/C=C\C(C)C1CCC2C3=CC=C4CC(O)CCC4(C)C3CCC21C` (stereo not drawn), the TGI is > 100 µM.

Regarding `Cc1cc2c(cc1Cl)SC(N(N(C)C)S(=O)(=O)c1ccc(Cl)cc1)=NS2(=O)=O`, the GI50 was 22.4 µM and the TGI is > 100 µM.

In another assay the test system is SK-MEL-5 melanoma. Description: NCI tumour cell line growth inhibition, 48 h.
For `COC(=O)C1=C(C)NC(C)=C(C(=O)OCCCN2CCC(c3ccccc3)(c3ccccc3)CC2)C1c1cccc([N+](=O)[O-])c1` (stereo not drawn), the TGI worked out at 3.16 µM.

In the case of `COc1ccc([C@H]2[C@@H](F)C(=O)N2c2cc(OC)c(OC)c(OC)c2)cc1F`, the GI50 was 0.0456 µM and the TGI was 0.35 µM.

`N=Nc1c(OC(=O)Nc2cccc(Cl)c2)[nH]c2ccccc12` gave a TGI of 24 µM.

`CC1(C)C2CCC(=O)C1CC2` (stereo not drawn): the TGI is > 100 µM.

As to `Fc1cc2[nH]ncc2c2c3c(c(-c4cn[nH]c4)nc12)CCCC3`, the GI50 is 0.552 µM and the TGI was 2.12 µM.

In the case of `CCN(CC)c1ccc(-c2cc(-c3cc(OC)c(OC)c(OC)c3)nc(N3CCOCC3)c2C#N)cc1`, the GI50 is 0.219 µM and the TGI amounted to 0.845 µM.

`C=C(Br)C(C)(Br)CCC(Br)C(C)(C)Cl` (stereo not drawn) came in with a TGI of 32.4 µM.

In the case of `O=C(CCc1nnc2sc(-c3ccc(Cl)cc3Cl)nn12)c1nc2ncccc2[nH]1`, the GI50 was 1.7 µM and the TGI was found to be 3.09 µM.

Regarding `ClCc1cccc(Cn2cnc3ncnc(Cl)c32)c1`, the GI50 is 4.65 µM and the TGI worked out at 18.2 µM.

For the compound `OCC#Cc1ccccc1C#Cc1ccccc1`, the GI50 is 15.9 µM and the TGI is 31.8 µM.

As to `NS(=O)(=O)c1cc(Br)c(N=Nc2ccc(O)c3ncccc23)c(Br)c1`, the TGI was > 100 µM.

For `O=C(Nc1ccc(Cl)cc1)c1cccc(NC2=C(Cl)C(=O)N(Cc3ccccc3)C2=O)c1`, the GI50 is 8.15 µM and the TGI came out at 20.9 µM.

Consider `O=C(/C=C/c1ccncc1)c1cc(Cl)ccc1O`, for which the GI50 was 19.2 µM and the TGI came out at 34.4 µM.

In the case of `Cc1cc(/C=C/c2ccc3cc(N(C)C)ccc3[n+]2C)c(C)n1-c1ccccc1`, the GI50 is 0.0835 µM and the TGI amounted to 0.226 µM.

For the compound `CC[C@H](Nc1ncnc2nc[nH]c12)c1oc2ccccc2c(=O)c1-c1cccc(F)c1`, the GI50 is 14 µM and the TGI is 28.2 µM.

Turning to `COc1cc(NCc2ccc3oc(=O)c(-c4ccccc4)nc3c2)cc(OC)c1OC`, the TGI is > 10 µM.

`COc1ccc(-c2nnc(COc3ccc(NC(=O)Nc4cc(C(F)(F)F)cc(C(F)(F)F)c4)cc3F)o2)cc1`: the GI50 was 1.73 µM and the TGI is 3.84 µM.

Take `COC1=CC(=O)C(C2CC(=O)c3c(O)cc(O)cc3O2)=CC1=O` (stereo not drawn): the TGI was determined as 31.7 µM.

Take `COc1cc(/C=C/c2cc(O)c(C(C)=O)c(O)c2)cc2c1O[C@]1(C)CC[C@@H](O)C(C)(C)[C@H]1C2`: the GI50 was 7.12 µM and the TGI turned out to be 22.3 µM.

As for `CC(C)C(C)/C=C\C(C)C1CCC2C3=CC=C4CC(O)CCC4(C)C3CCC21C` (stereo not drawn), the TGI amounted to 62.3 µM.

With `Cc1cc2c(cc1Cl)SC(N(N(C)C)S(=O)(=O)c1ccc(Cl)cc1)=NS2(=O)=O`, the GI50 was 15.4 µM and the TGI came to 28.7 µM.
